Assay results reported in PMC11242853, “The Antimicrobial Activity of Human Defensins at Physiological Non-Permeabilizing Concentrations Is Caused by the Inhibition of the Plasma Membrane H^+-ATPases” (International Journal of Molecular Sciences, 2024).

Legend:
[1] = system: Candida albicans ATCC 10231; assay: Antimicrobial spread-plate (CFU) killing assay, C. albicans; assay type: cell-based; details: for effect of high extracellular K+ on candidacidal activity: 50 mM KCl, defensins at NPIC, hLf 5 μM, BM2 0.25 μM, nystatin 50 μM; for effect of Tok1p inhibition (TEA) on candidacidal activity: preincubation 15 min at 37 °C with 10 mM TEA+
Protocol: (§1) To determine whether the above microbicidal concentrations exert a permeabilizing effect on fungal and bacterial membranes, the influx of the fluorescent nucleic acid-binding dye propidium iodide (PI) in cells incubated with the peptides was assessed. In cells, dye uptake reflects membrane permeabilization, as PI itself cannot permeate through an intact phospholipid bilayer. […] To select an antimicrobial but non-permeabilizing concentration of each peptide for further assays, we defined as a non-permeabilizing inhibitory concentration (NPIC) the antimicrobial inhibitory concentration (≤10% viable cells) that permeabilized ≤ 10% of cells incubated (90 min at 37 °C) in buffer solution.
(§2) Microbial susceptibility to the peptides was determined in a spread-plate assay as described previously. Briefly, cell suspensions (10^6 cells/mL) in Tris buffer (10 mM Tris-HCl, pH 7.4) were incubated for 90 min at 37 °C with 2-fold serial peptide dilutions. Peptide concentrations ranged from 0 to 2 μM. After incubation, the number of viable cells was determined by plating aliquots (100 μL) in duplicate on plates (SDA for C. albicans, TSA for P. aeruginosa, and M17G agarified medium for L. lactis) that had been dried for 30 min at room temperature in a laminar flow hood. Plates were incubated for 24–48 h at 30 °C (C. albicans and L. lactis) or 24 h at 37 °C (P. aeruginosa). Dilutions yielding 50–200 colonies were counted. Cell viability values, expressed as colony-forming units (CFUs), were calculated relative to the incubation without added peptides and represent the means ± standard deviation (SD) from duplicates of three independent experiments. For inhibition assays, unless otherwise noted, cell suspensions were preincubated (15 min at 37 °C) with the appropriate inhibitor prior to the addition of peptides, but the inhibitor was present throughout the incubation period with the peptide (90 min at 37 °C). Other specific experimental conditions are described as appropriate. In some experiments, the concentrations of human lactoferrin against C. albicans (5 μM), P. aeruginosa (1 μM), and L. lactis (0.065 μM) were used in the control assays. In various viability assays, BM2 peptide (0.25 μM), CCCP (50 μM), colistin (4 μg/mL), nystatin (50 μM), oligomycin A (16 μg/mL), piericidin A (32 μM), and TEA (10 mM) were used.

[2] = system: C. albicans cells; assay: Membrane potential monitoring with DiBAC4(3), flow cytometry; assay type: cell-based, Candida albicans; details: peptides at NPIC, hLf 5 μM, BM2 0.25 μM; DiBAC4(3) 1 µg/mL
Protocol: The membrane potential-sensitive probe DiBAC4(3) was used to monitor the transmembrane electrical potential of C. albicans cells as previously described with slight modifications. Briefly, cells were harvested from mid-log phase cultures via centrifugation and suspended in Tris buffer. The cell suspension was adjusted to 10^6 cells/mL and then incubated with DiBAC4(3) at a final concentration of 1 µg/mL for 30 min. Fluorescence was measured using a CytoFLEX S flow cytometer (Beckman Coulter) with excitation at 561 nm and emission at 690/50 nm. For each treatment, 5000 events were counted per experiment with an exposure time of 1000 ms. Results were analyzed using CytExpert 2.1 Acquisition software. As positive controls, human lactoferrin and BM2 peptide were used. Three independent experiments were performed and data are expressed as means ± SD.

[3] = system: C. albicans cells; assay: Total cellular ATP (BacTiter-Glo); assay type: cell-based, Candida albicans; details: defensins at NPIC, human lactoferrin 5 μM, BM2 peptide 0.25 μM; 10^6 cells/mL; BacTiter-Glo luminescence
Protocol: Total ATP was measured using the BacTiter-Glo^TM Microbial Cell Viability Assay (Promega Co., Madison, WI, USA) according to the manufacturer’s instructions. […] Aliquots (100 µL) were incubated (90 min at 37 °C) with human defensins (NPICs). Human lactoferrin (5 μM) or BM2 peptide (0.25 μM) was used as positive controls. One hundred microliters of the incubation mixture was transferred to an opaque 96-well plate, mixed with an equal volume of BacTiter-Glo^TM reagent, and incubated for 15 min in the dark. The reagent uses a thermostable luciferase to generate luminescence in an ATP-dependent manner. The emitted luminescence was detected using a Varioskan Flash multimode reader (Thermo Scientific, Waltham, MA, USA) with a 10 s shaking and 1 s integration time. A calibration curve was generated for each experiment with ATP standards ranging from 1 to 1000 nM. All assays were performed at least three times in duplicate.

[4] = system: C. albicans cells; assay: Extracellular potassium measurement (K+-efflux, ICP-MS); assay type: cell-based, Candida albicans
Protocol: Potassium measurements were performed via inductively coupled plasma mass spectrometry using an Agilent 7700x ICP-MS (Agilent Technologies, Santa Clara, CA, USA). C. albicans cells were cultured in SDB for 16–20 h at 30 °C. The cells were then subcultured in the same media to the mid-logarithmic growth phase and rapidly washed in sterile, deionized, double-distilled water. The cells (10^7 cells/mL) were immediately incubated with the peptides (NPIC) for 90 min at 37 °C. The tubes were centrifuged at 1100× g for 10 min and the supernatants were collected and stored at 4 °C until analysis. The percentage of cytosolic potassium released from cell suspensions treated with nystatin (50 μM) was determined in positive control assays. Total cellular K^+-content (100% value) was measured in the supernatant of cell suspensions previously treated with 0.5% (v/v) HClO4 alone, heated for 1 h at 95 °C, and centrifuged to remove cell debris. Results are expressed as the percentage (means ± SD) of K^+-release relative to the total cellular K^+-content from duplicates of at least three independent assays.

[5] = system: P. aeruginosa cells; assay: Oxygen consumption measurement (polarographic), P. aeruginosa; assay type: cell-based, Pseudomonas aeruginosa; details: after 30 min; defensins 2 x NPIC, human lactoferrin 20 μM, piericidin A 32 µM; preincubated 15 min at 37 °C; untreated cells 83% ± 2%; means ± SD, three experiments
Protocol: (§3) Oxygen consumption by C. albicans and P. aeruginosa cells was determined by polarographically using a biological oxygen monitor (dual digital-model 20; Rank Brothers Ltd., Cambridge, UK) at 25 °C. The apparatus consisted of a twin water-jacketed closed sample chamber, which enabled a control experiment to be conducted concurrently. The cells were grown to mid-log phase in SDB (C. albicans) or TSB (P. aeruginosa), washed twice in Tris buffer, and resuspended in the same buffer. Cell suspensions (approximately 10^7 cells/mL) were preincubated with defensins (2 x NPIC), human lactoferrin (20 μM), or piericidin A (32 μM) for 15 min at 37 °C. Oxygen consumption was recorded at 5-min intervals for a period of 30 min. Three independent experiments were performed, and the data are means ± SD.

[6] = system: C. albicans cells; assay: Oxygen consumption measurement (polarographic), C. albicans; assay type: cell-based, Candida albicans; details: after 30 min; defensins 2 x NPIC, human lactoferrin 20 μM, piericidin A 32 µM; preincubated 15 min at 37 °C; untreated cells 94% ± 2%; means ± SD, three experiments
Protocol: as §3

[7] = system: Pseudomonas aeruginosa PAO1; assay: Antimicrobial spread-plate (CFU) killing assay, P. aeruginosa; assay type: cell-based
Protocol: as §1, §2

In the case of “D-NH2-RRRFWWFRRR-CONH2 [BM2 peptide, positive control, reference compound]”, the “effect of high extracellular K+ on candidacidal activity” value [1] is reported as “significantly decreased”, the “effect of piericidin A on candidacidal activity” value ([1]; cells preincubated 15 min at 37 °C with 32 µM piericidin A, then peptides (NPIC) 90 min) is reported as “significantly (p < 0.001) inhibited” and the “effect of oligomycin A on candidacidal activity” value ([1]; preincubated 15 min at 37 °C with 16 μg/mL oligomycin A, peptides at NPIC) is reported as “significantly reduced”. The “effect of Tok1p inhibition (TEA) on candidacidal activity” value ([1]; peptides at NPIC) was “reduced”, the “transmembrane electrical potential (DiBAC4(3) fluorescence)” value [2] was “increase in DiBAC4(3) fluorescence” and the “increase in ATP levels compared to the untreated control” value [3] was ~ 9 fold. For the same compound, the “K^+-efflux pattern in C. albicans” value ([4]; peptides at NPIC / microbicidal concentrations, 10^7 cells/mL, 90 min at 37 °C, steady state compared with maximum intracellular K+ of untreated cells) was “partial K^+-efflux”.
In the case of C[C@@H]1[C@H](O)[C@@H](C)/C=C/C=C/CC/C=C/C=C/C=C/C=C/C(O[C@H]2O[C@H](C)[C@@H](O)[C@H](N)[C@@H]2O)CC2O[C@](O)(CC(O)C(O)CCC(O)CC(O)CC(O)CC(=O)O[C@H]1C)CC(O)C2C(=O)O (stereo partly drawn) [nystatin, reference compound], the “effect of high extracellular K+ on candidacidal activity” value [1] is reported as “no effect”, the “effect of Tok1p inhibition (TEA) on candidacidal activity” value ([1]; peptides at NPIC) is reported as “not altered” and the “K^+-release from yeast cells” value ([4]; nystatin 50 μM, 90 min, 37 °C, relative to total cellular K+-content (100%), ICP-MS) is reported as 70–85%.
C/C=C(\C)[C@H](O)[C@H](C)/C=C(C)/C=C/C/C(C)=C/Cc1nc(OC)c(OC)c(O)c1C [piericidin A, reference compound] was tested, and the “O2 consumption of P. aeruginosa” value [5] was 17% ± 3% and the “oxygen consumption percentage of C. albicans” value [6] was 20% ± 3%.
“colistin (polymyxin E) [reference compound]” was tested, and the “effect of high extracellular K+ on pseudomonacidal activity” value ([7]; 50 mM KCl, defensins at NPIC, hLf 1 μM, colistin 4 μg/mL) was “no effect”.
N#CC(C#N)=NNc1cccc(Cl)c1 [CCCP, carbonyl cyanide m-chlorophenylhydrazone, reference compound] was tested, and the “viability of P. aeruginosa with CCCP alone, acidic extracellular pH” value ([7]; 50 µM CCCP, pH of 5.5 and 6.5) was “decreased” and the “viability of P. aeruginosa with CCCP alone, alkaline pH” value ([7]; 50 µM CCCP, pH of 7.4, 7.7, and 8.0) was “not significantly altered”.
